# Source: patent US20050069907A1, “Methods for using double-mutant RNA polymerases with reduced discrimination between non-canonical and canonical nucleoside triphosphates” (priority 2002, published 2005)
# Tested on: Bgl II-cut pPK5
# Assay: Run-off transcription with 2′-OMe- or 2′-azido-NTPs on Bgl II-cut pPK5
# Type: biochemical
# Experimental: RNAPs were prepared as described (Brieba, L G, and Sousa, R. Biochemistry, 39: 919-923, 2000). Transcription reactions were carried out for 30 min. at room temperature in 40 mM Tris-Cl, pH 8.0, 6 mM MgCl2, 10 mM NaCl, 2 mM spermidine, with templates at 10^−7 M and RNAPs at 2×10^−7 M. All NTPs were used at 0.5 mM, and transcripts were labeled by inclusion of 1% v/v 800 Ci/mM […] in the reaction. Modified NTPs were from Trilink Biotechnologies. Reactions were stopped by addition of an equal volume of 90% formamide, 50 mM EDTA, 0.01% xylene cyanol, resolved by electrophoresis in 20% acrylamide, 1% bis-acrylamide, 1×TBE gels, and visualized on a Molecular Dynamics Phosphorimager.
# The ability of the wild-type, Y639F and Y639F/H784A mutants to utilize 2′-OMe-UTP and 2′-OMe-CTP, and 2′-azido-UTP and 2′-azido-CTP in RNA synthesis was tested. On a Bgl II-cut pPK5 (Mentesanas, P. E., et al., “Characterization of Bacteriophage T7 RNA Polymerase Elongation Complexes,” J. Mol. Biol. 302:1049-1062, 2000) template in which CTP and UTP are first incorporated at +14 and +15, respectively, the wild-type enzyme can synthesize 34 nucleotide (nt) run-off transcripts in reactions in which UTP is replaced with 2′-OMe-UTP (FIG. 2a, lane 2) or in reactions in which CTP is replaced with 2′-OMe-CTP (FIG. 2a, lane 3). Relative to the reaction with 4 NTPs (FIG. 2a, lane 1), yields of run-off transcripts are reduced 6-fold and 21-fold in the 2′-OMe-UTP and 2′-OMe-CTP reactions, respectively. When both UTP and CTP are replaced with the corresponding 2′-OMe-NTPs, run-off transcription with the wild-type enzyme is undetectable (FIG. 2a, lane 4). Terminated transcripts are seen in these reactions at positions where 2′-OMe-UMP or 2′-OMe-CMP are incorporated (FIG. 2a, lanes 2-4). The Y639F mutation enhances utilization of the 2′-OMe-NTPs: relative to reactions with 4 NTPs (FIG. 2a, lane 5) runoff transcription with Y639F is reduced, respectively: 2-fold, 8-fold, and 55-fold in reactions with 2′-OMe-UTP, 2′-OMe-CTP, or both (FIG. 2a, lanes 6-8). With the Y639F/H784A double mutant the reduction in run-off transcript synthesis is <15% in reactions with 2′-OMe-UTP (FIG. 2a, lane 10), and only 3-fold and 6-fold in reactions with, respectively, 2′-OMe-CTP or both 2′-OMe-UTP and 2′-OMe-CTP (FIG. 2a, lanes 11, 12).
# Identical experiments were carried out with 2′-azido-UTP or 2′-azido-CTP replacing UTP or CTP, respectively (FIG. 2b). With the wild-type enzyme, run-off transcription was reduced 15- and 50-fold in reactions with 2′-azido-UTP or 2′-azido-CTP, respectively (FIG. 2b; lanes 2, 3), and was undetectable in reactions with both 2′-azido-UTP and 2′-azido-CTP (FIG. 2b; lane 4). With Y639F, use of 2′-azido-UTP or 2′-azido-CTP reduced run-off transcription by 70% (FIG. 2b; lanes 6, 7) compared to reactions with 4 NTPs (FIG. 2b; lane 5), while use of both 2′-azido-UTP and 2′-azido-CTP reduced runoff transcription by 11-fold (FIG. 2b, lane 8). With Y639F/H784A use of a single azido-modified NTP reduced run-off transcription by only 40% (FIG. 2b; lanes 10, 11), while use of two 2′-azido-NTPs reduced it by 3-fold (FIG. 2b; lane 12).
# [1] = both 2′-azido-UTP and 2′-azido-CTP
Substance,Reduction of run-off transcript yield relative to 4 NTPs (2′-OMe-CTP replacing CTP),Reduction of run-off transcript yield relative to 4 NTPs (2′-OMe-UTP replacing UTP),Reduction of run-off transcription (2′-azido-CTP replacing CTP),Reduction of run-off transcription (2′-azido-UTP replacing UTP),Reduction of run-off transcript yield relative to 4 NTPs (both 2′-OMe-UTP and 2′-OMe-CTP),Reduction of run-off transcription [1],Reduction of run-off transcription (single azido-modified NTP (2′-azido-UTP or 2′-azido-CTP))
W.T.: wild-type T7 RNA polymerase [reference compound],21 fold,6 fold,50 fold,15 fold,undetectable,undetectable,
Y639F: T7 RNAP with wild-type tyrosine at position 639 substituted by phenylalanine,8 fold,2 fold,,,55 fold,11 fold,70%
